Experimental data taken from PubChem BioAssay (NCI).
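Five compound concentrations were applied to cells in 96-well plates for 48 hours; endpoints were derived by simple linear interpolation of the resulting dose-response curve. At the GI50, growth is halved. TGI: concentration producing complete growth inhibition.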

Legend:
Assay in all cases: DTP human tumour cell line panel, 48 h
A549 NSCLC = tested on: A549 NSCLC
OVCAR-3 ovarian = tested on: OVCAR-3 ovarian
LOX IMVI melanoma = tested on: LOX IMVI melanoma
SK-OV-3 ovarian = tested on: SK-OV-3 ovarian
A498 renal = tested on: A498 renal
HCT-15 colon = tested on: HCT-15 colon
RXF 393 renal = tested on: RXF 393 renal
IGROV1 ovarian = tested on: IGROV1 ovarian
K-562 leukemia = tested on: K-562 leukemia
HCC-2998 colon = tested on: HCC-2998 colon
SN12C renal = tested on: SN12C renal
TK-10 renal = tested on: TK-10 renal
KM12 colon = tested on: KM12 colon
SW-620 colon = tested on: SW-620 colon
HCT-116 colon = tested on: HCT-116 colon
RPMI-8226 leukemia = tested on: RPMI-8226 leukemia
MOLT-4 leukemia = tested on: MOLT-4 leukemia
MALME-3M melanoma = tested on: MALME-3M melanoma
SK-MEL-5 melanoma = tested on: SK-MEL-5 melanoma
OVCAR-4 ovarian = tested on: OVCAR-4 ovarian
HL-60(TB) leukemia = tested on: HL-60(TB) leukemia
HOP-92 NSCLC = tested on: HOP-92 NSCLC
SNB-19 CNS = tested on: SNB-19 CNS
M14 melanoma = tested on: M14 melanoma
UACC-257 melanoma = tested on: UACC-257 melanoma
CAKI-1 renal = tested on: CAKI-1 renal
SNB-75 CNS = tested on: SNB-75 CNS
SF-295 CNS = tested on: SF-295 CNS
U251 CNS = tested on: U251 CNS
SF-268 CNS = tested on: SF-268 CNS
SK-MEL-2 melanoma = tested on: SK-MEL-2 melanoma
NCI-H23 lung = tested on: NCI-H23 lung
NCI-H460 lung = tested on: NCI-H460 lung
NCI-H522 lung = tested on: NCI-H522 lung
NCI-H226 lung = tested on: NCI-H226 lung
UO-31 renal = tested on: UO-31 renal
SK-MEL-28 melanoma = tested on: SK-MEL-28 melanoma
UACC-62 melanoma = tested on: UACC-62 melanoma
COLO 205 colon = tested on: COLO 205 colon
ACHN renal = tested on: ACHN renal
KM20L2 colon = tested on: KM20L2 colon
HOP-62 NSCLC = tested on: HOP-62 NSCLC
SF-539 CNS = tested on: SF-539 CNS
786-0 renal = tested on: 786-0 renal
OVCAR-8 ovarian = tested on: OVCAR-8 ovarian
HT29 colon = tested on: HT29 colon

SMILES: C1C[OH+]CC[OH+]CC[OH+]CC[OH+]CC[OH+]CC[OH+]1.[Cl-].[V]
- GI50 (A549 NSCLC): 39.1 µM
- TGI (A549 NSCLC): > 100 µM
- GI50 (OVCAR-3 ovarian): 20.7 µM
- TGI (OVCAR-3 ovarian): 41.8 µM
- GI50 (LOX IMVI melanoma): 20.7 µM
- TGI (LOX IMVI melanoma): 38.7 µM
- GI50 (SK-OV-3 ovarian): 45.9 µM
- TGI (SK-OV-3 ovarian): 97 µM
- GI50 (A498 renal): > 100 µM
- TGI (A498 renal): > 100 µM
- GI50 (HCT-15 colon): 50.9 µM
- TGI (HCT-15 colon): > 100 µM
- GI50 (RXF 393 renal): 4.89 µM
- TGI (RXF 393 renal): 19 µM
- GI50 (IGROV1 ovarian): 13 µM
- TGI (IGROV1 ovarian): > 100 µM
- GI50 (K-562 leukemia): > 100 µM
- TGI (K-562 leukemia): > 100 µM
- GI50 (HCC-2998 colon): 71.9 µM
- TGI (HCC-2998 colon): > 100 µM
- GI50 (SN12C renal): > 100 µM
- TGI (SN12C renal): > 100 µM
- GI50 (TK-10 renal): 20.4 µM
- TGI (TK-10 renal): 92.5 µM
- GI50 (KM12 colon): 31.3 µM
- TGI (KM12 colon): > 100 µM
- GI50 (SW-620 colon): 49.6 µM
- TGI (SW-620 colon): > 100 µM
- GI50 (HCT-116 colon): 35.9 µM
- TGI (HCT-116 colon): > 100 µM
- GI50 (RPMI-8226 leukemia): 64.1 µM
- TGI (RPMI-8226 leukemia): > 100 µM
- GI50 (MOLT-4 leukemia): 82.5 µM
- TGI (MOLT-4 leukemia): > 100 µM
- GI50 (MALME-3M melanoma): 8.19 µM
- TGI (MALME-3M melanoma): 28.7 µM
- GI50 (SK-MEL-5 melanoma): 4.76 µM
- TGI (SK-MEL-5 melanoma): 25.3 µM
- GI50 (OVCAR-4 ovarian): 2.52 µM
- TGI (OVCAR-4 ovarian): 9.27 µM
- GI50 (HL-60(TB) leukemia): 37.1 µM
- TGI (HL-60(TB) leukemia): > 100 µM
- GI50 (HOP-92 NSCLC): 31.5 µM
- TGI (HOP-92 NSCLC): 99.2 µM
- GI50 (SNB-19 CNS): 47.1 µM
- TGI (SNB-19 CNS): > 100 µM
- GI50 (M14 melanoma): 12.1 µM
- TGI (M14 melanoma): 93.8 µM
- GI50 (UACC-257 melanoma): 16.6 µM
- TGI (UACC-257 melanoma): 37.4 µM
- GI50 (CAKI-1 renal): 36.9 µM
- TGI (CAKI-1 renal): > 100 µM
- GI50 (SNB-75 CNS): 13.9 µM
- TGI (SNB-75 CNS): 30 µM
- GI50 (SF-295 CNS): 18.7 µM
- TGI (SF-295 CNS): 43.8 µM
- GI50 (U251 CNS): 35.8 µM
- TGI (U251 CNS): > 100 µM
- GI50 (SF-268 CNS): 42.9 µM
- TGI (SF-268 CNS): > 100 µM
- GI50 (SK-MEL-2 melanoma): 29.2 µM
- TGI (SK-MEL-2 melanoma): 98.2 µM
- GI50 (NCI-H23 lung): 21.9 µM
- TGI (NCI-H23 lung): 47.7 µM
- GI50 (NCI-H460 lung): 36 µM
- TGI (NCI-H460 lung): > 100 µM
- GI50 (NCI-H522 lung): 26.3 µM
- TGI (NCI-H522 lung): 99.5 µM
- GI50 (NCI-H226 lung): 40.1 µM
- TGI (NCI-H226 lung): > 100 µM
- GI50 (UO-31 renal): > 100 µM
- TGI (UO-31 renal): > 100 µM
- GI50 (SK-MEL-28 melanoma): 13.7 µM
- TGI (SK-MEL-28 melanoma): 43.5 µM
- GI50 (UACC-62 melanoma): 10.7 µM
- TGI (UACC-62 melanoma): 51.4 µM
- GI50 (COLO 205 colon): > 100 µM
- TGI (COLO 205 colon): > 100 µM
- GI50 (ACHN renal): 31.1 µM
- TGI (ACHN renal): > 100 µM
- GI50 (KM20L2 colon): 46.5 µM
- TGI (KM20L2 colon): > 100 µM
- GI50 (HOP-62 NSCLC): 19.2 µM
- TGI (HOP-62 NSCLC): 33.9 µM
- GI50 (SF-539 CNS): 5.43 µM
- TGI (SF-539 CNS): 17.9 µM
- GI50 (786-0 renal): 11.7 µM
- TGI (786-0 renal): 33.9 µM
- GI50 (OVCAR-8 ovarian): > 100 µM
- TGI (OVCAR-8 ovarian): > 100 µM
- GI50 (HT29 colon): 39.7 µM
- TGI (HT29 colon): > 100 µM
